Measurements reported in US10526322B2, “Inhibitors of kidney-type glutaminase, GLS-1” (CORNELL UNIVERSITY, priority 2014, dated 2020).

Tested on: glutamine metabolism in Dbl-MEFs
Experiment: Metabolic tracing, mass isotopologue distribution with [U-13C]glutamine or [U-13C]glucose
Type: cell-based, mouse
Description: Methods for mass isotopologue distribution analyses using [U-^13C]glutamine or [U-^13C]glucose (Cambridge Isotope Laboratories) were adapted from Cheng et al., “Pyruvate Carboxylase Is Required for Glutamine-Independent Growth of Tumor Cells,” Proc. Natl. Acad. Sci. 108:8674-79 (2011), which is hereby incorporated by reference in its entirety. Briefly, induced (16 hours in complete media without Dox) or non-induced cells (complete media with 1 μg/mL Dox) were plated into 100 mm^2 dishes at a density such that the cells were approximately 60% confluent when adhered, at which point the cells were washed with PBS and grown to 80% confluence in DMEM supplemented with 1% Tet-approved FBS and 8 μM 968/27 for drug treated samples, or 0.8% DMSO for control samples, with or without 1 μg/mL Dox (i.e. overnight). When 80% confluent, cells were then washed with PBS and ^13C-labeling media containing the appropriate drug, DMSO, and Dox concentrations. Media was prepared from glucose- and glutamine-free DMEM powder (Sigma) and supplemented with 1% Tet-approved FBS, 2 mM L[U-^13C]glutamine and 15 mM unlabeled glucose or 15 mM D[U-^13C]glucose and 2 mM unlabeled glutamine (FIGS. 2F-G), together with 1 μg/mL Dox for non-induced samples. For samples containing [U-^13C]glutamine, cells were incubated for 1 hour before extracting metabolites, whereas samples containing [U-^13C]glucose were incubated for 8 hours. Metabolites were extracted by first washing cells twice with ice cold normal saline (0.9% w/v NaCl), followed by addition of 0.5 mL of a 1:1 methanol:water mixture (−20° C.). An internal standard (50 nmol of 2-oxobutyrate) was added and samples were subjected to 3 freeze-thaw cycles, after which macromolecules were separated by centrifugation. The supernatant was evaporated completely and remaining metabolites silylated in 100 μL of a trimethylsilyl donor (Tri-Sil, Thermo) for 30 minutes at 42° C. Metabolites were subjected to GC-MS analysis using an Agilent 6970 gas chromatograph networked to an Agilent 5973 mass selective detector. Metabolites were identified and isotope enrichment calculated as described by Cheng et al., “Pyruvate Carboxylase Is Required for Glutamine-Independent Growth of Tumor Cells,” Proc. Natl. Acad. Sci. 108:8674-79 (2011), which is hereby incorporated by reference in its entirety.

[1] = 8 μM, non-induced and induced cells

Structure (SMILES): CN(C)c1ccc(C2Nc3ccc4ccccc4c3C3=C2C(=O)CC(C)(C)C3)cc1Br (stereo not shown) [Compound 968]
- glucose labeling of citrate isotopologues (M+2) (8 μM overnight, 8 hour [U-13C]glucose): inhibit
- glutamate pool sizes [1]: modest decrease
- pool sizes of fumarate, malate, and citrate [1]: no effect
- glutamine-derived 13C isotopic enrichment within TCA cycle intermediates (Dbl-expressing cells, 8 μM overnight, 1 hour [U-13C]glutamine): significant reductions
